From patent publication US10168342B2, “Lipid probes and uses thereof” (THE SCRIPPS RESEARCH INSTITUTE, priority 2015, dated 2019)

Columns and labels:
Test in all cases: isoTOP-ABPP mapping of AEA-DA-modified peptides in Neuro2a cells
Type in all cases: cell-based
[1] = target: T1, AEA-DA-modified peptides in Neuro2a cells (Mus musculus, UniProt P10649); conditions: AEA-DA-modified peptide GSTM1 P10649 109-123, SEQ ID NO 44; probe 100 μM, 12 replicates
T1 construct: endogenous in cells; host or cells: Neuro2a
Description: (§1) Experiments were performed as described above using the AEA-DA probe (100 μM) in 3.0 mL of DMEM (serum-free) and Neuro2A cells without (twelve replicates; ten biological; two technical). For the ligand competition study, cells were treated with the AEA-DA probe (50 μM) and DMSO or MJN228 (50 μM) treatment. Cells were harvested and processed as described above. Whole cell lysates (500 μL at 1.5 mg/mL) were processed for MS analysis using the previously described isoTOPABPP protocol (Speers and Cravatt, 2005). In brief, for global mapping of AEA-DA-modified peptides, proteomes were split into two fractions, which were subjected to click chemistry conditions with either light or heavy isotopically labeled TEV-tags. For the […] competition study, proteomes were subjected to click chemistry conditions with either light (DMSO) or heavy (MJN228-treated) TEV-tags. Light and heavy-tagged proteomes in each experiment were then combined, and, following enrichment of probe-labeled targets using streptavidin beads, proteins were digested on-bead with trypsin and remaining immobilized peptides released with a subsequent TEV protease digestion. The resulting probe-modified peptides were collected for MS analysis, which was performed as described above with differences in the salt bumps applied in the chromatographic gradients which were 0%, 30%, 60%, 90% and 100% NH4OAc (500 mM). The protein identification searches of the MS data were performed using the same software packages described above with the following changes applied to identify the peptides modified with AEA-DA and the cleaved TEV tag. All amino acids were considered as possible residues for modification. To facilitate the computational searches, sets of up to 3 amino acids were searched using ProLuCID and filtered with DTASelect as described above. The mass of the modification used to search for probe-modified peptides was +727.4745 m/z for the probe plus the light TEV-tag and +733.4831 m/z for the heavy counterpart. […] For global mapping experiments, AEA-DA-modified peptides were expected to show a ratio of “heavy” and “light” signals of ˜1.0 (0.5<ratio<2.0) and were required to have been detected in at least two of the twelve replicate experiments.
(§2) In some embodiments, the ligands are tested for their interaction to NUCB1 in cells. […] MJN228 inhibited lipid probe binding to NUCB1 at concentrations as low as 10 μM, with near-maximal inhibition observed at ˜25 μM (FIG. 16A). […] The site of arachidonoyl probe (and MJN228) binding to NUCB1 was mapped in cells, which was accomplished by treating Neuro2A cells with the AEA-DA probe (50 μM) in the presence of DMSO or MJN228 (50 μM), followed by UV irradiation, CuAAC conjugation of AEA-DA-labeled proteins to isotopically light (DMSO-treated cells) and heavy (MJN228-treated cells) azide-biotin tags featuring a TEV protease-cleavable linker, and LCMS/MS analysis using a previously described platform, termed isoTOP-ABPP, for mapping probe-modified peptides in proteomes (Speers and Cravatt, 2005). A AEA-DA labeled peptide was identified for NUCB1 (aa 53-68) in DMSO-treated cells and the signals for this peptide were substantially (>5-fold) reduced in MJN228-treated cells (FIG. 15C). This AEA-DA labeling site was confirmed using recombinant, purified hNUCB1 and tandem MS analysis which narrowed down the site of probe modification to His67 (FIGS. 16B and 16C).

[2] = target: T2, AEA-DA-modified peptides in Neuro2a cells (Mus musculus, UniProt P21619); conditions: AEA-DA-modified peptide LMNB2 P21619 137-160, SEQ ID NO 57; probe 100 μM, 12 replicates
T2 construct: endogenous in cells; host or cells: Neuro2a
Description: as §1, §2

[3] = target: T3, AEA-DA-modified peptides in Neuro2a cells (Mus musculus, UniProt P47867); conditions: AEA-DA-modified peptide SCG3 P47867 178-203, SEQ ID NO 97; probe 100 μM, 12 replicates
T3 construct: endogenous in cells; host or cells: Neuro2a
Description: as §1, §2

[4] = target: T4, AEA-DA-modified peptides in Neuro2a cells (Mus musculus, UniProt P57780); conditions: AEA-DA-modified peptide ACTN4 P57780 839-855, SEQ ID NO 4; probe 100 μM, 12 replicates
T4 construct: endogenous in cells; host or cells: Neuro2a
Description: as §1, §2

[5] = target: T5, AEA-DA-modified peptides in Neuro2a cells (Mus musculus, UniProt P81117); conditions: AEA-DA-modified peptide NUCB2 P81117 60-73, SEQ ID NO 72; probe 100 μM, 12 replicates
T5 construct: endogenous in cells; host or cells: Neuro2a
Description: as §1, §2

[6] = target: T6, AEA-DA-modified peptides in Neuro2a cells (Mus musculus, UniProt Q8BGC4); conditions: AEA-DA-modified peptide ZADH2 Q8BGC4 86-115, SEQ ID NO 122; probe 100 μM, 12 replicates
T6 construct: endogenous in cells; host or cells: Neuro2a
Description: as §1, §2

[7] = target: T7, AEA-DA-modified peptides in Neuro2a cells (Mus musculus, UniProt Q8BKE6); conditions: AEA-DA-modified peptide CYP20A1 Q8BKE6 397-414, SEQ ID NO 29; probe 100 μM, 12 replicates
T7 construct: endogenous in cells; host or cells: Neuro2a
Description: as §1, §2

[8] = target: T8, AEA-DA-modified peptides in Neuro2a cells (Mus musculus, UniProt Q8BMG8); conditions: AEA-DA-modified peptide SLC25A32 Q8BMG8 115-146, SEQ ID NO 104; probe 100 μM, 12 replicates
T8 construct: endogenous in cells; host or cells: Neuro2a
Description: as §1, §2

[9] = target: T9, AEA-DA-modified peptides in Neuro2a cells (Mus musculus, UniProt Q91YE6); conditions: AEA-DA-modified peptide IPO9 Q91YE6 777-788, SEQ ID NO 54; probe 100 μM, 12 replicates
T9 construct: endogenous in cells; host or cells: Neuro2a
Description: as §1, §2

[10] = target: T10, AEA-DA-modified peptides in Neuro2a cells (Mus musculus, UniProt Q99J47); conditions: AEA-DA-modified peptide DHRS7B Q99J47 284-300, SEQ ID NO 31; probe 100 μM, 12 replicates
T10 construct: endogenous in cells; host or cells: Neuro2a
Description: as §1, §2

[11] = target: T11, AEA-DA-modified peptides in Neuro2a cells (Mus musculus, UniProt Q99JB2); conditions: AEA-DA-modified peptide STOML2 Q99JB2 292-322, SEQ ID NO 107; probe 100 μM, 12 replicates
T11 construct: endogenous in cells; host or cells: Neuro2a
Description: as §1, §2

[12] = target: T12, AEA-DA-modified peptides in Neuro2a cells (Mus musculus, UniProt Q9D379); conditions: AEA-DA-modified peptide EPHX1 Q9D379 296-329, SEQ ID NO 39; probe 100 μM, 12 replicates
T12 construct: endogenous in cells; host or cells: Neuro2a
Description: as §1, §2

T5 sequence (P81117 25-420): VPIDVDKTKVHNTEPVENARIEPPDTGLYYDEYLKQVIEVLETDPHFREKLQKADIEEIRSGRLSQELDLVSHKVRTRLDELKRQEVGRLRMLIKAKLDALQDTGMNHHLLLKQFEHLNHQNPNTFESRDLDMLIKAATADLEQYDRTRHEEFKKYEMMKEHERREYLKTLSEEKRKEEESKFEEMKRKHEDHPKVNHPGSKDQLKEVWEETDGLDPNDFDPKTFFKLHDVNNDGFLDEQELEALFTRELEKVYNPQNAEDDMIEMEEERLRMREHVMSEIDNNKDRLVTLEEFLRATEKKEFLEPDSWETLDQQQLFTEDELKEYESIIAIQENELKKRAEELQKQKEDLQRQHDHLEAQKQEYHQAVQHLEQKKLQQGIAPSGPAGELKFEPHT
T8 sequence (Q8BMG8 whole entry): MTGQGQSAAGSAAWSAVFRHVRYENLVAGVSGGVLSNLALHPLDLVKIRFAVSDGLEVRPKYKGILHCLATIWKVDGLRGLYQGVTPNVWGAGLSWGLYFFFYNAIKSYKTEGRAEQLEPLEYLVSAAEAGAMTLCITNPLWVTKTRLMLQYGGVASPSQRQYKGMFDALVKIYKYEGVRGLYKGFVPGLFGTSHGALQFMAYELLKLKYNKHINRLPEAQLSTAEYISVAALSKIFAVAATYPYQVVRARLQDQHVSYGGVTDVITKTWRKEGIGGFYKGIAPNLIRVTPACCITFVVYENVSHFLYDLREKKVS
T6 sequence (Q8BGC4 whole entry): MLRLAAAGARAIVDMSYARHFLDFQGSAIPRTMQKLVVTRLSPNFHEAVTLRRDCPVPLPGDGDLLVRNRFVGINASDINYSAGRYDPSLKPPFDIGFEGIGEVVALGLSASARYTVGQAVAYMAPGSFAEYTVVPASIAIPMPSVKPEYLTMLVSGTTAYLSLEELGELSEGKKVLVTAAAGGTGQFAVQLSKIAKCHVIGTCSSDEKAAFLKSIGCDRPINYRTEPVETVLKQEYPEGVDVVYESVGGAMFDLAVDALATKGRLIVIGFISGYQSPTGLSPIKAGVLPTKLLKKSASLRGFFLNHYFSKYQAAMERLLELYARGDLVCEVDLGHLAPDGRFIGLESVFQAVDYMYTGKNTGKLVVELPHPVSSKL
T3 sequence (P47867 23-471): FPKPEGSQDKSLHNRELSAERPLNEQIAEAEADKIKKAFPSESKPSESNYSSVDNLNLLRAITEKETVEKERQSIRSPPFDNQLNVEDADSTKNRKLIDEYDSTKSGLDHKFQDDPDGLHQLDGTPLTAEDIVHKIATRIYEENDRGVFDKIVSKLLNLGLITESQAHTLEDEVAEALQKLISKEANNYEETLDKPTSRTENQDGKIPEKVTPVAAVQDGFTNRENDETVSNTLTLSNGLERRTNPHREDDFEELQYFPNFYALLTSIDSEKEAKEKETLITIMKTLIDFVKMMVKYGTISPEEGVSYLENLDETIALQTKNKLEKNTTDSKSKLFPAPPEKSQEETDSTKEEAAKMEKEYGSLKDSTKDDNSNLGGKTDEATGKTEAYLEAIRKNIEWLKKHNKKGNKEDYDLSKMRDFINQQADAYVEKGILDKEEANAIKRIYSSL
T11 sequence (Q99JB2 29-353): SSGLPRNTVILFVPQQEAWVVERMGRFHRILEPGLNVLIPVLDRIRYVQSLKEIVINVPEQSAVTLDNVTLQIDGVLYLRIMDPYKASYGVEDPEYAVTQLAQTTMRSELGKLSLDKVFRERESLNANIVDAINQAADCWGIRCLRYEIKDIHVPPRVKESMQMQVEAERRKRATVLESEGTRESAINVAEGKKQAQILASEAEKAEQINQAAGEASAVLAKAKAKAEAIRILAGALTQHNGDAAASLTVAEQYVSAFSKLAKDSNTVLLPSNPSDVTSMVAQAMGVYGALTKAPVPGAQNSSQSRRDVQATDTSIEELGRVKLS
T12 sequence (Q9D379 whole entry): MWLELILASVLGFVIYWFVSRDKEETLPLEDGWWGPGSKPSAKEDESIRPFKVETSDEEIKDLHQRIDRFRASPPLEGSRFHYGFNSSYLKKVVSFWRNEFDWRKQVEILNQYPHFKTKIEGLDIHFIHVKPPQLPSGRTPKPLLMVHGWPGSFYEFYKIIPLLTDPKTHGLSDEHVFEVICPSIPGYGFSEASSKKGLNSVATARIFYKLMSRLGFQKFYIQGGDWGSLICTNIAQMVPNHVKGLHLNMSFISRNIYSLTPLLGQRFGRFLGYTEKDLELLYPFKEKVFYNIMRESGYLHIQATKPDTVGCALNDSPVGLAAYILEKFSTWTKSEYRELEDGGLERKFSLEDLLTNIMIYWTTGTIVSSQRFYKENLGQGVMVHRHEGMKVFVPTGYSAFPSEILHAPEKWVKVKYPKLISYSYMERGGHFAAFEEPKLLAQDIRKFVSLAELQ
T4 sequence (P57780 whole entry): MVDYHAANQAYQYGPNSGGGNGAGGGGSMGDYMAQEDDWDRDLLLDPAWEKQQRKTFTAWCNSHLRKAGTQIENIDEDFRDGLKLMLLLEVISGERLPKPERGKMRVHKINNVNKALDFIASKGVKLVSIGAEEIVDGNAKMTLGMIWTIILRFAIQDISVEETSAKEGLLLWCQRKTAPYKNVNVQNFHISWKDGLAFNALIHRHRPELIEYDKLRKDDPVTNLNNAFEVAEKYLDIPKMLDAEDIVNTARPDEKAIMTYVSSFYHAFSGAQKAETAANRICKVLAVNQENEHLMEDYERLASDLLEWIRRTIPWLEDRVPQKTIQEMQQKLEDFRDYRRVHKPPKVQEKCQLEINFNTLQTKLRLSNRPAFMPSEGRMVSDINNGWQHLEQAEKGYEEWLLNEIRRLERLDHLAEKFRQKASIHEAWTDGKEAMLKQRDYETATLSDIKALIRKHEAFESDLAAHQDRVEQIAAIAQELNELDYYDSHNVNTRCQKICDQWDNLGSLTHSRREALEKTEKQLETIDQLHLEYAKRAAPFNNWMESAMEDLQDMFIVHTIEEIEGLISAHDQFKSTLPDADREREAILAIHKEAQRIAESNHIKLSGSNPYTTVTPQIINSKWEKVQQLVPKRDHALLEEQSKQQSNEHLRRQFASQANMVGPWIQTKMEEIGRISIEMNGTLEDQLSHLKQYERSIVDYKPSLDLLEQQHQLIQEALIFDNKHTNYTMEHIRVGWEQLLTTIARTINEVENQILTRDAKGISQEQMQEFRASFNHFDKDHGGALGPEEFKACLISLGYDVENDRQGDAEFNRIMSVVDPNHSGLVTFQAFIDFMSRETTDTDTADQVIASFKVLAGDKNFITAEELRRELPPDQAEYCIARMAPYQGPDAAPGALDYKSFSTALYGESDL
T9 sequence (Q91YE6 whole entry): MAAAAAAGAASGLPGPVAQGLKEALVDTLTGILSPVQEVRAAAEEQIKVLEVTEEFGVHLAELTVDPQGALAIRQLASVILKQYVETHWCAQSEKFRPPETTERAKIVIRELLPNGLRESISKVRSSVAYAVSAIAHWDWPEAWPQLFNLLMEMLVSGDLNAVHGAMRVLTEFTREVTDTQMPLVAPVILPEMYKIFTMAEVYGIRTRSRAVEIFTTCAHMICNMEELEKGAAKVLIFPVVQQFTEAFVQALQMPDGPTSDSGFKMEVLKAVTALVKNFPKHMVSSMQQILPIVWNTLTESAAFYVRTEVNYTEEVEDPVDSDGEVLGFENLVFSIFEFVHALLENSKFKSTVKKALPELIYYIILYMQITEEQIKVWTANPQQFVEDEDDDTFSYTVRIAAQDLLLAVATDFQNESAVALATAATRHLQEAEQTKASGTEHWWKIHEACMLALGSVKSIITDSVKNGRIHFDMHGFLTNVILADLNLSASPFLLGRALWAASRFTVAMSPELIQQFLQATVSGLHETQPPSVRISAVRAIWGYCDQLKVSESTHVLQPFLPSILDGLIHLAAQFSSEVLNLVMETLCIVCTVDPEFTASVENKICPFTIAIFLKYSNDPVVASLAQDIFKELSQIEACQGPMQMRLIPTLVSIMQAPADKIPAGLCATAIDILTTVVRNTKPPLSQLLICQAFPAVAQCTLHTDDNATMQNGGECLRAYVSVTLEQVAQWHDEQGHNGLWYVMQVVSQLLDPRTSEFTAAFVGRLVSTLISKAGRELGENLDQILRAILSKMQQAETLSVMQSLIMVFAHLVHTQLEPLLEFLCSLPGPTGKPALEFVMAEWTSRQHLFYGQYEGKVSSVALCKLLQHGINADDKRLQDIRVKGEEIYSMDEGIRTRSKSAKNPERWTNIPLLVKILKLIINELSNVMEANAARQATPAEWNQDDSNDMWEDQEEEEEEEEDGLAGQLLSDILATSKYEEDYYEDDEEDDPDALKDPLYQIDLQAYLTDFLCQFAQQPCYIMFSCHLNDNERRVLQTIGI
T2 sequence (P21619 whole entry): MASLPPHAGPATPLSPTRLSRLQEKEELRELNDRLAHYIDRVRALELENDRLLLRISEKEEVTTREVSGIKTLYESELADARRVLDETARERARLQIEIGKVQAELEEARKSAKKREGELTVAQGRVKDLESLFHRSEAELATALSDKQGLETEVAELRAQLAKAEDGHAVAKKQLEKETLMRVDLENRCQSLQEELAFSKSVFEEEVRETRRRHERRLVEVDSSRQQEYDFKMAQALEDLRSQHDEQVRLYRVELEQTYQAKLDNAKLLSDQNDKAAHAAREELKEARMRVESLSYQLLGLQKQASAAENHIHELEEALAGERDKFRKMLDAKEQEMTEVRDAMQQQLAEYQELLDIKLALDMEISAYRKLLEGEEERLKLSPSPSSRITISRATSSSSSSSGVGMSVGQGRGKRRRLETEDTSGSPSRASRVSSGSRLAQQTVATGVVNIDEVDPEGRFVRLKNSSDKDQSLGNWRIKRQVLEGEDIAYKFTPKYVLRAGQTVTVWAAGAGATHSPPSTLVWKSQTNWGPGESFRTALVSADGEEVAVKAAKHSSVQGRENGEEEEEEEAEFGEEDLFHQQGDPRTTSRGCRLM

Structure (SMILES): C#CCCCC1(CC/C=C\C/C=C\C/C=C\CCCC(=O)NCCO)N=N1 [AEA-DA, (5Z,8Z,11Z)-N-(2-hydroxyethyl)-14-(3-(pent-4-yn-1-yl)-3H-diazirin-3-yl)tetradeca-5,8,11-trienamide]
- Times observed [1]: 4
- Times observed [2]: 5
- Times observed [3]: 4
- Times observed [4]: 2
- Times observed [5]: 4
- Times observed [6]: 8
- Times observed [7]: 8
- Times observed [8]: 6
- Times observed [9]: 3
- Times observed [10]: 2
- Times observed [11]: 2
- Times observed [12]: 8
